From patent publication US20250120952A1, “17-Beta-Hydroxysteroid Dehydrogenase Type 13 Inhibitors And Methods Of Use Thereof” (ENANTA PHARMACEUTICALS, INC., priority 2023, published 2025)

Tests used:
H441 cells = experiment: Collagen / COL1A1 mRNA in H441 cells; type: cell-based, human; conditions: H441 (high HSD17B13), +/-TGFB1 10 ng/mL, inhibitor 3 uM, 24 hours; effect only in H441, not in A549 (low HSD17B13) (FIG. 11)
Method: (§1) Human lung cancer cell lines with high (H441) or low (A549) expression of HSD17B13, as confirmed by western blot, were acquired from ATCC and maintained according to manufacturer's instructions. Cells were seeded at a confluency of 2e5 cells/well (A549) or 4e5 cells/well (H441) in a 6-well format. Once cells were 70% confluent, media was removed and replenished with starvation media for 24 hours. Afterward starvation media was removed and replenished with treatment media for 24 hours. Compound 348 and Compound 812 were used as HSD17B13 inhibitors. For gene expression analysis, treatment media consisted of +/−TGFB1 (10 ng/mL) and +/−HSD17B13 inhibitor (3 uM). For HSD17B13 enzymatic activity, treatment media consisted of +/−d2-Estradiol (Cayman Chemicals) and +/−HSD17B13 inhibitor (0.3 uM, 1 uM, 3 uM); supernatants were collected to measure estradiol conversion to estrone by rapid fire mass spectrometry.

HSD17B13 = target: T1, HSD17B13 (Homo sapiens, UniProt Q7Z5P4); experiment: HSD17B13 enzymatic activity in H441 cells (estradiol conversion to estrone, rapid fire mass spectrometry); type: cell-based; conditions: H441 (high HSD17B13), inhibitor 0.3 uM, 1 uM, 3 uM, 24 hours; effect only in H441, not in A549 (low HSD17B13) (FIG. 10)
T1 construct: Human lung cancer cell lines with high (H441) or low (A549) expression of HSD17B13, as confirmed by western blot; host or cells: H441 human lung cancer cell line
T1 sequence (Q7Z5P4 20-300): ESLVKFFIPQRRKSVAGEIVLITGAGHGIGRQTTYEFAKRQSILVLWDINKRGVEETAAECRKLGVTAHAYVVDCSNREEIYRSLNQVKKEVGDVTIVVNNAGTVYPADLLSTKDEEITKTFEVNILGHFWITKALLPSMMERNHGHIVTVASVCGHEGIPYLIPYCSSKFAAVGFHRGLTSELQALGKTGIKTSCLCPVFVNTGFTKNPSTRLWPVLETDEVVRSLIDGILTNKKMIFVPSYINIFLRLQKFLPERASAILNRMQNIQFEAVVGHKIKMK
Method: as §1

COc1cc(C(=O)O)ccc1NS(=O)(=O)c1csc(-c2ccc(C3CCC(C(F)(F)F)CC3)cc2)n1 (centres unmarked) [Compound 348]
COL1A1 (Collagen) (H441 cells): decreased
enzymatic activity (d2-estradiol conversion to estrone) (HSD17B13): decreased
